This is an account of results in patent publication US20260152503A1, “SPIROBICYCLIC COMPOUNDS” (ACERAND THERAPEUTICS (HONG KONG) LIMITED, priority 2022, published 2026).

One test concerns the target T1, FGFR2 (Homo sapiens, UniProt P21802, K310R/N549K).
T1 construct: in FGFR aberrations of AN3CA (FGFR2/k310R, N549K); host or cells: AN3CA
Description: pERK potency assay (In Cell ELISA), AN3CA cells. The class given is cell-based. The note with it: for IC50: pERK, AN3CA (FGFR2/k310R, N549K) cells, 3 hours; for FGFR1 IC50/FGFR2 IC50 / FGFR3 IC50/FGFR2 IC50: selectivity ratio, pERK potency; for FGFR1 IC50/FGFR2 IC50: FGFR2 relative to FGFR1; for FGFR3 IC50/FGFR2 IC50: FGFR2 relative to FGFR3. A digest of the protocol:
(§1)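 IC50 values come from a 4-parameter sigmoidal fit of in-cell ELISA chemiluminescent pERK (Thr202/Tyr204) signal. Treatment lasted 3 h at 37 °C, final 0.000038 to 10 μM in 4-fold steps, using AN3CA (mutant FGFR2), DMS114 (amplified FGFR1) and RT112 (FGFR3 overexpression/fusion) cells.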

For another test, the target named is T2, FGFR1 (Homo sapiens, UniProt P11362).
T2 construct: DMS114 (FGFR1 amplification); host or cells: DMS114
In words: pERK potency assay (In Cell ELISA), DMS114 cells. The class given is cell-based. As to conditions: DMS114 (FGFR1 amplification) cells, 3 hours. Summed up: as §1
Background: An ELISA detects its analyte on a solid surface through an enzyme-linked reagent.

Another test deals with T3, FGFR3 (Homo sapiens, UniProt P22607).
T3 construct: RT112 (FGFR3 overexpression/FGFR3-TACC3 fusion); host or cells: RT112; the other entry of the earlier key: TACC3 (Q9Y6A5, Transforming acidic coiled-coil-containing protein 3)
Description: pERK potency assay (In Cell ELISA), RT112 cells. As to conditions: RT112 (FGFR3 overexpression/FGFR3-TACC3 fusion) cells, 3 hours. The class given is cell-based. Summed up: as §1

The subject of the next test is AN3CA. In words: 2D cell proliferation assay, AN3CA. Type of test: cell-based. The note with it: Homo sapiens, AN3-CA, 96 hours, CTG, read-out: Cell Line, IC50 AN3CA. How it is done: (§2) Low IC50 values are indicative of the high potency of the FGFR inhibitor compounds in this assay selling. […] Cell proliferation assays are performed in two-dimensional (2D)) anchorage-dependent conditions in 96 well plates (Corning® Black/Clear flat Bottom, Cat #3603) with the following cell lines: • Ba/F3 FGFR2-BICC1 (human […]): Mouse Ba/F3 cell line stably expressed exogenous human FGFR2-BICC1 fusion gene bearing V546F mutation in FGFR2 Ba/F3; • FGFR2-BICC1 (human FGFR2/[…]): Mouse Ba/F3 cell line stably expressed exogenous human FGFR2-BICC1 fusion gene bearing N549K mutation in FGFR2; • Snu-16: human gastric cancer cell with FGFR2 amplification; • KATO III: human gastric cancer cell with FGFR2 amplification; • AN3CA: Human endometrial cancer with FGFR2 mutation (k310R, N549K); • MFM-223: Human breast cancer with FGFR1/2 amplification; • MFE-296: Human endometrial cancer with FGFR2 mutation (N549K); • MFE-280: Human endometrial cancer with FGFR2 mutation ([…]); • NCI-H1581: human non-small cell lung cancer with FGFR1 amplification; • KG-1a: Acute myelogenous leukemia with FGFR1OP2-FGFR1 translocation; • DMS114: human small cell carcinoma of the lung with FGFR1 amplification; • RT112: human bladder cancer with FGFR3 overexpression/FGFR3-TACC3 fusion; • SW780: human bladder cancer with FGFR3 overexpression/FGFR3-BALAP2L1 fusion; • Hep3B: Liver cancer with FGF19 amplification (FGFR4 ligand); • AGS: Human gastric adenocarcinoma with Kras G12D mutation and FGFR wild type; • PC-9: human non-small cell lung cancer (NSCLC) with wild-type FGFR and an EGFR del19 mutation; or • H1975: human non-small cell lung cancer (NSCLC) with wild-type FGFR and EGFR L858R/T790M mutation.
(§3) Cell lines are purchased from the American Type Culture Collection (ATCC) or Sigma. All cell lines are maintained in RPMI-1640 or DMEM supplemented with 10% heat-inactivated fetal bovine serum.
(§4) Cells growing in the log phase are detached with Gibco™ TrypLE™ Express Enzyme and plated in 96 well plate at 3000 to 5000 cells/well in 100 μl of media. After overnight incubation at 37° C., 5% CO2 incubator, cells are treated with compounds (50 uL/well) at the final concentrations spanning from 0.000038 uM to 10 μM (4-fold serial dilution for total of 10 points). Cells are incubated at 37° C., 5% CO2, and 95% humidity incubator for 96 hours. At the end of incubation 2D CTG reagent from Promega was added to each well according to vendors recommendation and mixed for 10 min in dark. The luminescence signals are determined with a Biotek™ plate reader. Data is fitted using a sigmoidal curve analysis program (GraphPad Prism®) with variable hill slope and IC50 is determined.

Another test has as its target T4, Ba/F3 FGFR2-N549K (Homo sapiens, UniProt P21802, N549K, cells depend on it).
T4 construct: fused on or other part: Q9H694 (Protein bicaudal C homolog 1)
Description: 2D cell proliferation assay, Ba/F3 FGFR2-N549K. As to conditions: 96 hours, CTG, read-out: Cell Line, IC50 Ba/F3 FGFR2-N549K. Type of test: cell-based, mouse. Summed up: (§5)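 Cells seeded at 3000–5000 cells/well in RPMI-1640 or DMEM with 10% FBS, treated next day with compounds at 0.000038–10 μM final (4-fold, 10 points) for 96 h at 37°C, 5% CO2. Viability by CellTiter-Glo luminescence; IC50 from sigmoidal variable-slope fit.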

For a further test, the target named is T5, Ba/F3 FGFR2-V564F (Homo sapiens, UniProt P21802, V564F, cells depend on it).
T5 construct: fused on or other part: Q9H694 (Protein bicaudal C homolog 1)
Description: 2D cell proliferation assay, Ba/F3 FGFR2-V564F. Type of test: cell-based, mouse. The note with it: 96 hours, CTG, read-out: Cell Line, IC50 Ba/F3 FGFR2-V564F. A digest of the protocol: as §5

In the next test the test system is KATO III. In words: 2D cell proliferation assay, KATO III. The class given is cell-based. As to conditions: Homo sapiens, 96 hours, CTG, read-out: Cell Line, IC50 KATO III. How it is done: as §2, §3, §4
Another test concerns SNU-16. In words: 2D cell proliferation assay, SNU-16. The class given is cell-based. The note with it: Homo sapiens, 96 hours, CTG, read-out: Cell Line, IC50 SNU-16. How it is done: as §2, §3, §4

T2 sequence (P11362 22-822): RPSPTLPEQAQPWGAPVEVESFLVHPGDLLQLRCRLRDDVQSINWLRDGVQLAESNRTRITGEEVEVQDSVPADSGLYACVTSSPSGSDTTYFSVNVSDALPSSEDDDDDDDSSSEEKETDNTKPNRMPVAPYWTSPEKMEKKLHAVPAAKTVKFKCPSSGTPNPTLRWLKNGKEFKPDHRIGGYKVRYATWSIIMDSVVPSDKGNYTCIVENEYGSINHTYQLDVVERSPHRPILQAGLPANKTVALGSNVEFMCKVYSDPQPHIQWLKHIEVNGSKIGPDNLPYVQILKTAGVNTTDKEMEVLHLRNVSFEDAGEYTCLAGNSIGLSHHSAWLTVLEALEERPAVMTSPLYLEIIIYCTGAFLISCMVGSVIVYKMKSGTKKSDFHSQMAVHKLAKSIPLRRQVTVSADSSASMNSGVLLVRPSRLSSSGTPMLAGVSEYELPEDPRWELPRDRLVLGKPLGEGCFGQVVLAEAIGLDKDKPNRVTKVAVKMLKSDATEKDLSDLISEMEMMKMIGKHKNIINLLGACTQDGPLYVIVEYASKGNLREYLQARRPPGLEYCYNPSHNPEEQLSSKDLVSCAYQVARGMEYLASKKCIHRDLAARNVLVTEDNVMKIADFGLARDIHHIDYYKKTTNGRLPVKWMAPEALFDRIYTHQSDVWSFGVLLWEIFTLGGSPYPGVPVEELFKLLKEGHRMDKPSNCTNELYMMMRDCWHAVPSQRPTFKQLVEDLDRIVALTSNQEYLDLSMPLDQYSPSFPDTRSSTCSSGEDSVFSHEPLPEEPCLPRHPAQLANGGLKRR
T1 sequence (P21802 22-821 K310R/N549K): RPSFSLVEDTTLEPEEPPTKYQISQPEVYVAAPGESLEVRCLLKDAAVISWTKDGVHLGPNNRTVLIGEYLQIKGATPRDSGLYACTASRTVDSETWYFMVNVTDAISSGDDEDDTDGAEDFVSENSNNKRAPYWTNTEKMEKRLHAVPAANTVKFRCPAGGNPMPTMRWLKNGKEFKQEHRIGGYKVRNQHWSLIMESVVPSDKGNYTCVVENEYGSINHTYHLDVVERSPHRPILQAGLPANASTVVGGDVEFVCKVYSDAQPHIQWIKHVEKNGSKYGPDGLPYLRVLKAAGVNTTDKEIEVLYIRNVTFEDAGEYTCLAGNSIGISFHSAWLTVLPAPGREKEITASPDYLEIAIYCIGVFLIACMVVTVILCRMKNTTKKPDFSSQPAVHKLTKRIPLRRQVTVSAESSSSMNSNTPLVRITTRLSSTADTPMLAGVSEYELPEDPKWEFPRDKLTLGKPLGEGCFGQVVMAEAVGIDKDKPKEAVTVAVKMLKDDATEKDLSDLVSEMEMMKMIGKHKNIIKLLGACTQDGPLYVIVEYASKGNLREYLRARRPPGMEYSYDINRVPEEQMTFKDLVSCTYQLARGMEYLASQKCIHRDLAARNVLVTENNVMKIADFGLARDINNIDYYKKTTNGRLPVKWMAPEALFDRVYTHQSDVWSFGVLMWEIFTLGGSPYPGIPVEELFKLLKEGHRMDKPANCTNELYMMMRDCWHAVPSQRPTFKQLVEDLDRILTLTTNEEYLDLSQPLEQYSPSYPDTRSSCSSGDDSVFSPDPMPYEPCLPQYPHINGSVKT
T5 sequence (P21802 whole entry V564F, the tested form may be a part): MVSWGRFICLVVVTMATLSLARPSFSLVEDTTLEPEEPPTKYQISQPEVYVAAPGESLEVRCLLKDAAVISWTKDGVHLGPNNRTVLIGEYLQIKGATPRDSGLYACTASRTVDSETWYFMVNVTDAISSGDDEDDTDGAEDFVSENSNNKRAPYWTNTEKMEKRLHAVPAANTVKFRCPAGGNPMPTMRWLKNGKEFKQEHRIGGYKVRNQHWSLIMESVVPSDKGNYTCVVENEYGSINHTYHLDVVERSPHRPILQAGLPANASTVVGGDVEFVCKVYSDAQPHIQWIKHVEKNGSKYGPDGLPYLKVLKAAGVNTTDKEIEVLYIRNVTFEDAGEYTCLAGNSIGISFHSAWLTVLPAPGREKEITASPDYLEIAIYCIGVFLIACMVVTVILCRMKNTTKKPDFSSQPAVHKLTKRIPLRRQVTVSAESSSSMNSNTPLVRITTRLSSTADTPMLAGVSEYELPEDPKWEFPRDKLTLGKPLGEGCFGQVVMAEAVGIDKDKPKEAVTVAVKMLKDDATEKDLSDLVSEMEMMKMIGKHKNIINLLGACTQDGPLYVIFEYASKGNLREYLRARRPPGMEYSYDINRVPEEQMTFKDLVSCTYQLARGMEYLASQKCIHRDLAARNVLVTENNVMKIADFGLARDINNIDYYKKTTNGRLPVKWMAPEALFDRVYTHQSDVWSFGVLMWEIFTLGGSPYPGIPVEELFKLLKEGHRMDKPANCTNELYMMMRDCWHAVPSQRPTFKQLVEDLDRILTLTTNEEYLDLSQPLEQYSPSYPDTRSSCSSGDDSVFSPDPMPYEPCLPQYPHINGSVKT
T4 sequence (P21802 whole entry N549K, the tested form may be a part): as the sequence (P21802 whole entry V564F, the tested form may be a part) above, with N549K, F564V counted along it

As for `C=CC(=O)N1CCC2(CC=C(c3c(C#N)c4c(N)ncnc4n3C)CC2)CC1` [Example 57, 6-(3-acryloyl-3-azaspiro[5.5]undec-8-en-9-yl)-4-amino-7-methyl-7H-pyrrolo[2,3-d]pyrimidine-5-carbonitrile], the IC50 was 1 to 10 nM on FGFR2; more than 100 nM on FGFR1; more than 100 nM on FGFR3; 1 to 10 nM in the test on AN3CA; 1 to 10 nM in the test with KATO III; 1 to 10 nM in the test with SNU-16. Besides, the “FGFR1 IC50/FGFR2 IC50” value at FGFR2 is “G (a selectivity ratio greater than 150 but less than or equal to 500)”. In addition, the “FGFR3 IC50/FGFR2 IC50” value on FGFR2 is listed as “H (a selectivity ratio greater than 500 but less than or equal to 1000)”. For the same molecule, the figures for the GI50 on Ba/F3 FGFR2-N549K and at Ba/F3 FGFR2-V564F were 10 to 30 nM and more than 100 nM, respectively.

As for `C=CC(=O)N1CCC2(CC=C(c3[nH]c4ncnc(N)c4c3-c3ncccn3)CC2)CC1` [Example 58, 1-(9-(4-amino-5-(pyrimidin-2-yl)-7H-pyrrolo[2,3-d]pyrimidin-6-yl)-3-azaspiro[5.5]undec-8-en-3-yl)prop-2-en-1-one], the IC50 on FGFR2 is 1 to 10 nM; on FGFR1, more than 100 nM; at FGFR3 it was more than 100 nM; with AN3CA, 1 to 10 nM; with KATO III it was 10 to 30 nM; in the test on SNU-16 it was 10 to 30 nM. Besides, at FGFR2, the “FGFR1 IC50/FGFR2 IC50” value is on record as “G (a selectivity ratio greater than 150 but less than or equal to 500)”. The “FGFR3 IC50/FGFR2 IC50” value on FGFR2 was “H (a selectivity ratio greater than 500 but less than or equal to 1000)”. The GI50 lay within 10 to 30 nM at Ba/F3 FGFR2-N549K and 1 to 10 nM at Ba/F3 FGFR2-V564F.

On to `C=CC(=O)N1CCC2(CC=C(c3c(-c4ccc(OC5CCCC5)nc4)c4c(N)ncnc4n3C)CC2)CC1` [Example 24, 1-(9-(4-amino-5-(6-(cyclopentyloxy)pyridin-3-yl)-7-methyl-7H-pyrrolo[2,3-d]pyrimidin-6-yl)-3-azaspiro[5.5]undec-8-en-3-yl)prop-2-en-1-one], for which the IC50 on FGFR2 was 1 to 10 nM; at FGFR1, more than 100 nM; at FGFR3 it was more than 100 nM; in the test with AN3CA, 10 to 30 nM; in the test on KATO III, 10 to 30 nM; in the test with SNU-16, 10 to 30 nM. The “FGFR1 IC50/FGFR2 IC50” value at FGFR2 is “F (a selectivity ratio greater than 50 but less than or equal to 150)”. In addition, the “FGFR3 IC50/FGFR2 IC50” value at FGFR2 is recorded as “F (a selectivity ratio greater than 50 but less than or equal to 150)”. Further, the figures for the GI50 at Ba/F3 FGFR2-N549K and on Ba/F3 FGFR2-V564F were 1 to 10 nM and 30 to 100 nM, respectively.

Regarding `C=CC(=O)N1CCC2(CC=C(c3c(-c4ccc(Oc5nccc(C)n5)c(F)c4)c4c(N)ncnc4n3C)CC2)CC1` [Example 62, 1-(9-(4-amino-5-(3-fluoro-4-((4-methylpyrimidin-2-yl)oxy)phenyl)-7-methyl-7H-pyrrolo[2,3-d]pyrimidin-6-yl)-3-azaspiro[5.5]undec-8-en-3-yl)prop-2-en-1-one], the IC50 on FGFR2 is 1 to 10 nM; at FGFR1, more than 100 nM; at FGFR3 it was more than 100 nM; in the test with AN3CA it was 30 to 100 nM; in the test with KATO III, 10 to 30 nM; with SNU-16, 10 to 30 nM. Further, the “FGFR1 IC50/FGFR2 IC50” value on FGFR2 is listed as “F (a selectivity ratio greater than 50 but less than or equal to 150)”. Moreover, at FGFR2, the “FGFR3 IC50/FGFR2 IC50” value is “G (a selectivity ratio greater than 150 but less than or equal to 500)”. The GI50 was 10 to 30 nM at Ba/F3 FGFR2-N549K and not above 1 nM on Ba/F3 FGFR2-V564F.

Turning to `C=CC(=O)N1CCC2(CC=C(c3c(-c4cnc(OC5CC5)c(F)c4)c4c(N)ncnc4n3C)CC2)CC1` [Example 23, 1-(9-(4-amino-5-(6-cyclopropoxy-5-fluoropyridin-3-yl)-7-methyl-7H-pyrrolo[2,3-d]pyrimidin-6-yl)-3-azaspiro[5.5]undec-8-en-3-yl)prop-2-en-1-one], the IC50 was 1 to 10 nM on FGFR2; more than 100 nM on FGFR1; more than 100 nM at FGFR3; 10 to 30 nM in the test with AN3CA; 1 to 10 nM in the test with KATO III; 1 to 10 nM in the test with SNU-16. Moreover, at FGFR2, the “FGFR1 IC50/FGFR2 IC50” value is reported as “G (a selectivity ratio greater than 150 but less than or equal to 500)”. Also, the “FGFR3 IC50/FGFR2 IC50” value at FGFR2 is “H (a selectivity ratio greater than 500 but less than or equal to 1000)”. Also, the GI50 on Ba/F3 FGFR2-N549K lay within 1 to 10 nM; on Ba/F3 FGFR2-V564F, 10 to 30 nM.

Regarding `C=CC(=O)N1CCC2(CC=C(c3c(-c4ccc(OC5CC5)nc4)c4c(N)ncnc4n3C)CC2)CC1` [Example 22, 1-(9-(4-amino-5-(6-cyclopropoxypyridin-3-yl)-7-methyl-7H-pyrrolo[2,3-d]pyrimidin-6-yl)-3-azaspiro[5.5]undec-8-en-3-yl)prop-2-en-1-one], the IC50 is 1 to 10 nM at FGFR2; more than 100 nM on FGFR1; more than 100 nM on FGFR3; 10 to 30 nM in the test with AN3CA; 1 to 10 nM in the test on KATO III; 1 to 10 nM in the test with SNU-16. Besides, the “FGFR1 IC50/FGFR2 IC50” value at FGFR2 was “G (a selectivity ratio greater than 150 but less than or equal to 500)”. In addition, the “FGFR3 IC50/FGFR2 IC50” value on FGFR2 is reported as “G (a selectivity ratio greater than 150 but less than or equal to 500)”. Moreover, the GI50 on Ba/F3 FGFR2-N549K and on Ba/F3 FGFR2-V564F was 1 to 10 nM in each case.

As for `C=CC(=O)N1CCC2(CC=C(c3c(-c4ncc(C(F)F)cn4)c4c(N)ncnc4n3C)CC2)CC1` [Example 56, 1-(9-(4-amino-5-(5-(difluoromethyl)pyrimidin-2-yl)-7-methyl-7H-pyrrolo[2,3-d]pyrimidin-6-yl)-3-azaspiro[5.5]undec-8-en-3-yl)prop-2-en-1-one], the IC50 at FGFR2 was not above 1 nM; at FGFR1, more than 100 nM; at FGFR3, more than 100 nM; in the test with AN3CA it was not above 1 nM; in the test with KATO III it was 1 to 10 nM; with SNU-16 it was 1 to 10 nM. For the same molecule, the “FGFR1 IC50/FGFR2 IC50” value at FGFR2 was “G (a selectivity ratio greater than 150 but less than or equal to 500)”. In addition, at FGFR2, the “FGFR3 IC50/FGFR2 IC50” value was “I (a selectivity ratio greater than 1000 but less than or equal to 2000)”. Moreover, the GI50 on Ba/F3 FGFR2-N549K is 1 to 10 nM; on Ba/F3 FGFR2-V564F it was not above 1 nM.

The term IC50 denotes the midpoint of a concentration-inhibition curve.
